Data as given in paper PMC5390981, “Peptide probes derived from pertuzumab by molecular dynamics modeling for HER2 positive tumor imaging” (PLoS Computational Biology, 2017).
Each block holds one molecule with its values, some of them ahead of it. No end group written: not given here.

Tests used:
[1] = test system: SKBR3; assay: Toxicity of peptides to cells (S4 Fig); assay type: cell-based
[2] = test system: HUVEC; assay: Toxicity of peptides to cells (S4 Fig); assay type: cell-based
[3] = test system: subcutaneous SKBR3 tumor xenografts; assay: In vivo and ex vivo fluorescence imaging of tumor targeting; design: species or system Balb/c female nude mice; conditions: for in vivo tumor fluorescence intensity (binding affinity increase) relative to the control Cy5.5: Cy5.5-labeled peptide 1 μM, 200 μL i.v. tail vein, 30 min postinjection, nude mice with SKBR3 xenografts, average n = 3; for ex vivo tumor fluorescence signal compared to controls: dissected tumors 30 min postinjection of Cy5.5-labeled peptide, n = 3
Protocol: Five to six-week-old Balb/c female nude mice were subcutaneously administered approximately 1 × 10^7 SKBR3 cells into the right hind leg, to establish xenografted tumors. Thereafter, tumor size was periodically measured with a caliper, and mice with tumors of 6−8 mm in diameter were selected for the following small animal experiments. Cy5.5–NHS (Lumiprobe) was used to label peptides. Either Cy5.5-peptides or the control Cy5.5 (1 μM, 200 μL) was intravenously injected into tumor-bearing nude mice via the tail vein. The mice were anesthetized and fluorescence signals measured using the small animal in vivo imaging system 30 min postinjection. Three mice were used for each peptide and for control. Near-infrared fluorescence imaging of tumor-bearing nude mice were taken with an exposure time of 50 ms, using the Cy5.5 filter sets (excitation: 673 nm; emission: 707 nm), and the intensities were quantified using the same software. Then, fluorescence images of the main organs and of tumors dissected from nude mice were individually taken as above.

[4] = test system: SKBR3 cell line with high HER2 expression; assay: Confocal fluorescence imaging of cells incubated with Cy5.5-labeled peptides; assay type: cell-based; conditions: 50 μM Cy5.5-labeled peptide, 4°C, 20 min
Protocol: Four cell lines (SKBR3, MCF7, MDA-MB-468, and 293A) were seeded at a density of 3000 cells/mL into culture dishes and allowed to culture overnight with 5% CO2 at 37°C. Cell nuclei was stained with 1 mM Hoechst 33342 in 200 μL cell culture medium and incubated at 37°C for 15 min. Then, cells were incubated in culture medium with 50 μM Cy5.5-labeled peptide at 4°C for 20 min. Finally, cells were washed three times with cold PBS for observation. An Olympus FV1000-IX81 confocal-laser scanning microscope was used for confocal fluorescence imaging. An FV5-LAMAR 633 nm laser was used as the excitation source, and the emission wave length was collected at 690 nm. Hoechst 33342 was excited by a FV5-LD405-2 405 nm laser and collected within the range of 422–472 nm. All microscope parameters were identical for all observations of the binding ability of the various peptides.

[5] = target: HER2/biotin complex (Homo sapiens, UniProt P04626); assay: OBOC peptide library screening with magnetic beads; assay type: binding; conditions: library of 5184 sequences, HER2/biotin and magnetic streptavidin microspheres, 37°C, 2 h each step
From the text: The OBOC peptide library was designed based on binding free energies derived from the MD simulations of single and double mutants that are lower than the HER2/4665 complex. These mutations are in the 4665 fragment of pertuzumab from 55 to 64: EWVADVNPNX55X56X57X58X59X60N61X62X63X64K. According to computational calculations, the V, S, and M mutants have lower energies for X55. This is also the case for G, M, and Y for X56; G, A, and V for X57; S, F, and H for X58; I and R for X59; Y and W for X60; Q and F for X62; R, W, Q, and V for X63; and F and R for X64. The result is a 3*3*3*3*2*2*2*4*2 = 5184 library capacity.
The OBOC library synthesis and screening was performed as per the previously used method. Briefly, HBTU (4 mmol) and Fmoc-amino acid (4 mmol) reagent was dissolved in 0.4 mol/L N-Methyl morpholine in N,N-dimethylformamide and coupled with the solid phase supporting materials for 40 min during the coupling step. A 20% piperidine was used to remove the Fmoc group for 10 min in the deprotection step. During the OBOC library synthesis, the amino acid coupling process was carried out in the “split” step, while the deprotection process was carried out in the “pool” step. After elongation, a trifluoroacetic acid cleavage reagent was introduced to cleave the side chain protection group of each residue. […]

[6] = target: T1, HER2 protein (human epidermal growth factor receptor 2) (human, UniProt P04626 23-652); assay: SPR; SPR imaging (SPRi, PlexArray HT); peptides immobilised through an N-terminal cysteine on a bare gold chip, blocked with 5% nonfat milk; HER2 or HSA in PBST flowed at 0.625 to 20 μg/mL; KD from fitting association-dissociation curves; conditions: both partners purified
T1 construct: Human epidermal growth factor receptor 2 (HER2), bought protein; Surmise: the bought protein is probably a soluble extracellular domain, possibly tagged; source: bought: Sino Biological Inc., China

[7] = target: HER2 on cells (SKBR3, high expression; MCF7, medium expression) (human (endogenous in SKBR3), UniProt P04626 23-1255); assay: cell-based or functional assay

Molecule: EWVADVNPNSGGSIYNQRFK [compound 4665]
toxicity to SKBR3 cells [1]: no toxicity
toxicity to HUVEC cells [2]: no toxicity
in vivo tumor fluorescence intensity (binding affinity increase) relative to the control Cy5.5 [3]: 3.52 fold
ex vivo tumor fluorescence signal compared to controls [3]: significantly high fluorescence signals

Molecule: Cy5.5-58F63Y: peptide 58F63Y labeled with Cy5.5 (Cy5.5–NHS) (EWVADVNPNSGGFIYNQYFK; also: Cy5.5 label (via Cy5.5-NHS), position not given here)
fluorescent intensity of Cy5.5-peptides in SKBR3 cells [4]: strongest fluorescence

B2: peptide 58F63Y with N-terminal cysteine, for SPRi (peptide)
peptide: CEWVADVNPNSGGFIYNQYFK
notes: a cysteine residue linked to the amino terminal, for attachment to the bare gold chip; numbers count on: pertuzumab (first letter is 46); source: synthetic peptide (Fmoc solid phase synthesis, HPLC purified)
Kd [6]: 0.536 µM

B3: peptide 55V (4665 with Ser55 to Val) with N-terminal cysteine, for SPRi (peptide)
peptide: CEWVADVNPNVGGSIYNQRFK
notes: as for B2
Kd [6]: 64.6 µM

B5: peptide 55V63Y with N-terminal cysteine, for SPRi (peptide)
peptide: CEWVADVNPNVGGSIYNQYFK
notes: as for B2
Kd [6]: 8.16 µM

B7: Cy5.5-labeled peptide 58F63Y (peptide)
peptide: EWVADVNPNSGGFIYNQYFK
modifications: also: Cy5.5 label (via Cy5.5-NHS), position not given here
in vivo fluorescence intensity of SKBR3 tumor xenografts in nude mice 30 min after injection of Cy5.5-58F63Y, relative to the control Cy5.5 [7]: 5.09 fold

Further lines, with some results ahead:

OBOC library screening result (bead identified by MALDI-TOF-MS/MS) [5]: positive
Molecule: EWVADVNPNSGGFIYNQYFK [58F63Y]
toxicity to SKBR3 cells [1]: no toxicity
toxicity to HUVEC cells [2]: no toxicity
in vivo tumor fluorescence intensity (binding affinity increase) relative to the control Cy5.5 [3]: 5.09 fold
ex vivo tumor fluorescence signal compared to controls [3]: significantly high fluorescence signals

Kd [6]: 9.86 µM
B1: peptide 4665 (pertuzumab fragment Glu46 to Lys65) with N-terminal cysteine, for SPRi (peptide)
peptide: CEWVADVNPNSGGSIYNQRFK
notes: a cysteine residue linked to the amino terminal, for attachment to the bare gold chip; fragment of pertuzumab from Glu46 to Lys65 (beta hairpin); numbers count on: pertuzumab in PDB 1S78; source: synthetic peptide (Fmoc solid phase synthesis, HPLC purified)

Kd [6]: 1.54 µM
B4: peptide 63Y (4665 with Arg63 to Tyr) with N-terminal cysteine, for SPRi (peptide)
peptide: CEWVADVNPNSGGSIYNQYFK
notes: as for B2

Kd [6]: 1.32 µM
B6: peptide 58F (4665 with Ser58 to Phe) with N-terminal cysteine, for SPRi (peptide)
peptide: CEWVADVNPNSGGFIYNQRFK
notes: as for B2
